Measurements as given in US11643691B2, “Predictive biomarkers for cancer immunotherapy and methods of using same” (Duke University, priority 2018, dated 2023).

How the values were obtained:
[1] = tested on: CD8+ T cell proliferation; assay: T cell proliferation assay (CellTrace Violet dilution, OT-1 splenocytes with conditioned DCs); type: cell-based, mice; details: DCs pre-treated, LPS stimulated
Procedure: T Cell Proliferation Assay: Splenocytes of OT-1 mice (H-2b) were isolated and stained with CellTrace Violet (ThermoFisher). Preconditioned DCs were loaded with ovalbumin peptide SIINFEKL, and co-cultured at a DC:splenocyte ratio of 40,000:120,000 cells for 72 hrs. CD8+ T cell proliferation was measured by the dilution of Cell Trace Violet dye by flow cytometry.

CD4+FoxP3+ Treg cells = assay: In vitro Treg cell assay (conditioned DCs with naive CD4+ T cells); type: cell-based, mice; details: for DC-mediated Treg cell differentiation in vitro: treated DCs co-cultured with naive CD4+ T cells
Procedure: (§1) Dendritic Cell Conditioning: DCs were treated with Wnt3a (100 ng/mL), Wnt5a (200 ng/mL), LPS (1 μg/mL), 1-MT (1 mM), 2DG (1 mM), or ETO (100 μM), 2-DG(2-deoxy-d-glucose, 1 mM), Oligomycin (1 μM), succinylacetone (250 μM), or vehicle control either for 24 or 48 hrs prior to their use in both in vitro and in vivo experiments.
Treg Cell Assays: For in vivo Treg cell assays, DCs (C57, H-2b) were pre-treated for 48 hours and delivered by intradermal injection into the footpad of Foxp3-mRFP mice. Draining inguinal and popliteal lymph nodes were resected 5 days later and analyzed for CD4+Foxp3+ Treg cells. For in vitro Treg cell assays, DCs (Balb/c, H-2d) were pre-treated for either 24 or 48 hrs, and re-plated at a 1:3 DC:T-cell ratio with purified allogeneic naive Foxp3-mRFP(H-2b) CD44loCD62LhiCD4+ Tcells. These co-cultures were incubated for 6 days and quantitated for CD4+FoxP3+ Treg cells by flow cytometry.

DCs [2] = assay: Extracellular acidification rate (ECAR), Seahorse XFe24 flux analysis of DCs; type: cell-based, Murine
Procedure: as §1
(§2) Cellular Energy Metabolism Analysis: DC energy metabolism was measured using the XFe24 extracellular flux analyzer (Seahorse Bioscience), with the glycolysis stress test kit and the mitochondrial stress test kit as previously described (Everts et al., 2014, Zhao and Klimecki, 2015). For experiments involving LPS injection, DCs were plated in XFe24 plates (200,000/well in 500p1) and treated with LPS for 48 hours prior to XF analysis. DCs were washed and analyzed in XF media (RPMI without sodium bicarbonate, 10 mM glucose, 1% FBS, 2 mM L-glutamine). ECAR was analyzed in real-time with or without LPS stimulation. For experiments involving BrafV600EPten−/− cell line-derived conditioned media (CM), collected CM was concentrated and desalted with an Amicon Ultra 30K filter according to manufacturer's recommendations (Milipore). Final concentrate was further washed with XF media 3 times, added to DCs immediately prior to OCR analysis. For standard ECAR analysis, XF media (without glucose) was used to wash cells prior to the assay. A final concentration of 10 mM glucose, 1 μM oligomycin, 50 mM 2-DG(sigma) were injected through XFe24 port A-C. For standard OCR analysis, XF media (with 10 mM glucose) was used to wash cells, a final concentration of 1 μM oligomycin, 1.5 μM FCCP (fluoro-carbonyl cyanide phenylhydrazone), 100 nM rotenone, and 1 μM of antimycin-A (Sigma) were injected through XFe24 port A-C.

[3] = tested on: syngeneic BRAF^V600EPTEN^−/− melanomas; assay: Syngeneic melanoma study with NLRP3i and anti-PD-1 ab; type: in vivo
Procedure: (A) Treatment of syngeneic BRAF^V600EPTEN^−/− melanomas with IgG isotype control ab (200 μg ip every 3 days), NLRP3i (MCC950 10 μg ip every 3 days), anti-PD-1 ab (200 μg ip every 3 days), or both NLRP3i and anti-PD-1 ab combination therapy (n=8). (B) Gr-MDSC flow cytometry analysis of resected BRAF^V600EPTEN^−/− melanomas following treatment with IgG isotype control ab, NLRP3i, anti-PD-1 ab, or both NLRP3i and anti-PD-1 ab combination therapy (n=4). top, representative flow cytometry dot plot. (C) CD8^+ T cell flow cytometry analysis of resected BRAF^V600EPTEN^−/− melanomas following treatment with IgG isotype control ab, NLRP3i, anti-PD-1 ab, or both NLRP3i and anti-PD-1 ab combination therapy (n=4). All data is mean±SEM. *P<0.05.
As depicted in FIG. 21A, NLRP3 inhibition can be combined with a […] (e.g. PD-1 inhibitor) to augment the anti-tumor effect of the PD-1 inhibitor therapy.

DCs [4] = assay: Oxygen consumption rate (OCR) / OXPHOS, Seahorse XFe24 flux analysis of murine DCs; type: cell-based; details: DCs pre-treated
Procedure: as §1
as §2, with “A final concentration of 10 mM glucose, 1 μM oligomycin, 50 mM 2-DG(sigma) were injected through XFe24 port A-C. For standard OCR analysis, XF media (with 10 mM glucose) was used to wash cells, a final concentration of 1 μM oligomycin, 1.5 μM FCCP (fluoro-carbonyl cyanide phenylhydrazone), 100 nM rotenone, and 1 μM of antimycin-A (Sigma) were injected through XFe24 port A-C.” left out

DCs [5] = assay: qRT-PCR / qPCR array / immunoblot gene expression in DCs; type: cell-based, Murine
Procedure: Dendritic Cell Conditioning: DCs were treated with Wnt3a (100 ng/mL), Wnt5a (200 ng/mL), LPS (1 μg/mL), 1-MT (1 mM), 2DG (1 mM), or ETO (100 μM), 2-DG(2-deoxy-d-glucose, 1 mM), Oligomycin (1 μM), succinylacetone (250 μM), […]
Antibodies, Immunoprecipitation, and Immunoblot Analysis: Primary antibodies including CPT1A (Cell signaling), PPAR-γ (Santa Cruz Biotechnology), β-catenin, β-actin (Millipore), p-AMPK(T172)/AMPK (Cell signaling), p-AKT(T308)/Akt (Cell Signaling) were used at 1:1000. Secondary antibodies including goat anti-rabbit IgG-HRP (Millipore) and goat anti-mouse IgG-HRP (Millipore) were used at 1:5000. Cells were lysed in Laemmli sample buffer after treatment and subjected to SDS-polyacrylamide gel electrophoresis and immunoblot analysis. For immunoprecipitation, cells were lysed in radio immunoprecipitation assay (RIPA) buffer [10 mM sodium phosphate (pH 8.0), 150 mM NaCl, 1% Triton X-100, 1% sodium deoxycholate, and 0.1% SDS in the presence of 1 mM DTT, 1 mM phenylmethylsulfonylfluoride, and a protease inhibitor cocktail (Sigma)], precleared with protein A beads, and then incubated with 1 μg of antibody against β-catenin or isotype control IgG with protein A-agarose beads on a rotator overnight at 4° C. After 3 washes with RIPA buffer, immunoprecipitated complexes were eluted in sample buffer by boiling and subjected to immunoblot analysis. Immunoblots were visualized by chemiluminescence substrate (ThermoFisher) and imaged by a ChemiDoc XRSplus system (BioRad).
RNA Isolation, RT-qPCR, qPCR Array: Total RNA was isolated by RNeasy Plus Mini Kit(Qiagen). RNA(500 ng) were used in cDNA Synthesis (iScript, BioRad). Quantification of mRNA for genes involved in PPARγ signaling was performed using Mouse PrimePCR PPAR Array according to the manufacturer's protocol (BioRad). Real-time PCR was performed using an ABI7500 Real-Time PCR system (Life Technologies). Data analysis utilized the PrimePCR Analysis Software (BioRad). Conventional qPCR was performed using validated primers, and SsoAdvanced Universal SYBR Green Super mix (BioRad) or Taqman probes (Applied Biosystems) for heme synthesis enzymes.

DCs [6] = assay: PpIX flow cytometry analysis and hemin colorimetric assay; type: cell-based, Murine
Procedure: IDO enzymatic assay and Hemin assay: DC IDO enzyme activity was measured by the conversion of L-tryptophan to L-kynurenine in conditioned media by HPLC (Pallotta et al., 2011). Intracellular hemin was measured using a colorimetric assay kit (BioVision).
PpIX Analysis: DCs were terminally incubated in the presence of 1 mM δ-aminolevulinic acid (ALA) for 4 hrs. Intracellular PpIX was analyzed by flow cytometry as previously described (Hryhorenko et al., 1998).

With O=CC[C@@H](O)[C@H](O)[C@H](O)CO [2-DG, 2-Deoxy-D-glucose, reference compound] the “LPS-induced DC-mediated antigen-specific T cell proliferation” value [1] was “suppresses LPS-induced DC-mediated antigen-specific T cell proliferation” and the “DC-mediated Treg cell differentiation in vitro” value (CD4+FoxP3+ Treg cells) was “enhanced Treg cell differentiation in vitro”.

For NC(=O)c1ncn([C@@H]2O[C@H](CO)[C@@H](O)[C@H]2O)c1N [AICAR, reference compound], the “LPS-induced glycolytic surge (ECAR)” value (DCs [2]; DCs pre-treated) was “antagonize the glycolytic surge required for DC maturation”.

With CC(C)(O)c1coc(S(=O)(=O)NC(=O)Nc2c3c(cc4c2CCC4)CCC3)c1 [MCC950] the “efficacy of anti-PD-1 ab immunotherapy” value ([3]; NLRP3i added to anti-PD-1 ab) was “Enhances the Efficacy of Anti-PD-1 Ab Immunotherapy” and the “Gr-MDSC recruitment (Ly6G+ Gr-MDSCs)” value ([3]; flow cytometry of resected melanomas) was “Suppresses Gr-MDSC Recruitment”.

Oc1nc(-c2ccc(C(F)(F)F)cc2)nc2c1CSCC2 [XAV939, reference compound] was tested, and the “glycolysis in DCs (ECAR)” value (DCs [2]) was “promoted glycolysis in DCs”.

For CC[C@H]1/C=C/C=C/C[C@@H](C)[C@H](O)[C@@](C)(O)C(=O)[C@@H](C)[C@H](O)[C@@H](C)C(=O)[C@@H](C)[C@H](O)[C@@H](C)/C=C/C(=O)O[C@@H]2[C@H](C)[C@H](CC1)O[C@]1(CC[C@H](C)[C@H](C[C@@H](C)O)O1)[C@H]2C [oligomycin, Oligomycin], the “DC-mediated Treg cell differentiation in vitro” value (CD4+FoxP3+ Treg cells) was “eliminated these Treg cell populations”.

For CC(=O)CC(=O)CCC(=O)O [succinylacetone, 4,6-Dioxoheptanoic acid], the “ability of Wnt5a-conditioned DCs to drive Treg cell differentiation in vitro” value (CD4+FoxP3+ Treg cells; Wnt5a plus inhibitor) was “significantly abrogated the ability of Wnt5a-stimulated DCs to promote Treg cell generation”.

With Wnt3a the “glycolysis in DCs (ECAR)” value (DCs [2]) was “no changes”, the “OXPHOS in DCs (OCR)” value (DCs [4]) was “no changes” and the “expression of Alas1 and further enzymes of PpIX synthesis” value (DCs [5]; qRT-PCR) was “not”. The “PPAR-γ (Pparg) and CPT1A (Cpt1a) expression” value (DCs [5]; real-time qPCR and immunoblot, murine and human DCs for rWnt5a) was “failed to induce expression of both PPAR-γ and CPT1A in DCs”, the “DC-mediated Treg cell differentiation in vitro” value (CD4+FoxP3+ Treg cells) was “failed to condition DCs to promote Treg cell differentiation” and the “DC concentrations of PpIX and hemin” value (DCs [6]) was “failed to enhance PpIX synthesis in DCs”.
